In publication PMC9854539, “QSAR Studies, Molecular Docking, Molecular Dynamics, Synthesis, and Biological Evaluation of Novel Quinolinone-Based Thiosemicarbazones against Mycobacterium tuberculosis” (Antibiotics, 2022):
Values after ≈ are worked out from the molar mass of the structure shown. Values joined by “and” are separate entries in the source; they are usually repeats but may differ in a detail not shown here. Equal entries are not always repeated.

Experiments:
[1] = tested on: M. tuberculosis ATCC 35838; test: Spot culture growth inhibition assay (SPOTi), MIC; type: cell-based, Mycobacterium tuberculosis; conditions: IC50 Vero / MIC M. tuberculosis ATCC 35838 RR
MTT cytotoxicity assay = conditions: African green monkey
M. tuberculosis LAM 9 = test: Spot culture growth inhibition assay (SPOTi), MIC; type: cell-based, Mycobacterium tuberculosis; conditions: IC50 Vero / MIC M. tuberculosis LAM 9 (sit 42)
M. bovis BCG = test: microbe, parasite or virus in culture; type: cell-based; conditions: for Selectivity Index (SI) (SI = IC50/MIC) a: IC50 Vero / MIC M. bovis BCG; for MIC: Mycobacterium tuberculosis variant bovis BCG, BCG, read-out: MIC M. bovis BCG
M. tuberculosis H37Rv = test: Spot culture growth inhibition assay (SPOTi), MIC; type: cell-based, Mycobacterium tuberculosis; conditions: for Selectivity Index (SI) (SI = IC50/MIC) b: IC50 Vero / MIC M. tuberculosis H37Rv; for MIC: Mycobacterium tuberculosis, H37RV, SPOTi, 2–3 weeks at 37 °C
M. tuberculosis Orphan = test: Spot culture growth inhibition assay (SPOTi), MIC; type: cell-based, Mycobacterium tuberculosis; conditions: IC50 Vero / MIC M. tuberculosis orphan
M. tuberculosis Beijing = test: Spot culture growth inhibition assay (SPOTi), MIC; type: cell-based, Mycobacterium tuberculosis; conditions: for Selectivity Index (SI) (SI = IC50/MIC) d: IC50 Vero / MIC M. tuberculosis Beijing
[2] = tested on: M. tuberculosis ATCC 35822; test: Spot culture growth inhibition assay (SPOTi), MIC; type: cell-based, Mycobacterium tuberculosis; conditions: IC50 Vero / MIC M. tuberculosis ATCC 35822 RI
M. tuberculosis Haarlem = test: Spot culture growth inhibition assay (SPOTi), MIC; type: cell-based, Mycobacterium tuberculosis; conditions: IC50 Vero / MIC M. tuberculosis Haarlem
[3] = tested on: M. tuberculosis H37RV strain; design: method as in earlier work; conditions: cited from earlier work; for MIC: observed activity of QSAR data set; for MIC exp (log (1/molarMIC)): pMIC from literature MIC in mol/L

CC(/C=C/c1cc2cc(C)ccc2[nH]c1=O)=N\NC(N)=S [Compound 11b, (E)-2-((E)-4-(6-Methyl-2-oxo-1,2-dihydroquinolin-3-yl)but-3-en-2-ylidene)hydrazine-1-carbothioamide]
Selectivity Index (SI) (SI = IC50/MIC) g [1]: 1.06 | IC50 at 48 h (MTT cytotoxicity assay): 3.53 µM | Selectivity Index (SI) (SI = IC50/MIC) e (M. tuberculosis LAM 9): 0.21 | Selectivity Index (SI) (SI = IC50/MIC) a (M. bovis BCG): 22.06 | MIC (M. bovis BCG): 0.16 µM (≈ 0.0481 µg/mL) | Selectivity Index (SI) (SI = IC50/MIC) b (M. tuberculosis H37Rv): 22.06 | MIC (M. tuberculosis H37Rv): 0.16 µM (≈ 0.0481 µg/mL) | Selectivity Index (SI) (SI = IC50/MIC) c (M. tuberculosis Orphan): 0.11 | Selectivity Index (SI) (SI = IC50/MIC) d (M. tuberculosis Beijing): 2.13 | Selectivity Index (SI) (SI = IC50/MIC) h [2]: 1.06 | Selectivity Index (SI) (SI = IC50/MIC) f (M. tuberculosis Haarlem): 1.06

CC(/C=C/c1cc2cccc(C)c2[nH]c1=O)=N\NC(N)=S [Compound 11c, (E)-2-((E)-4-(8-Methyl-2-oxo-1,2-dihydroquinolin-3-yl)but-3-en-2-ylidene)hydrazine-1-carbothioamide]
Selectivity Index (SI) (SI = IC50/MIC) g [1]: 1.14 | IC50 at 48 h (MTT cytotoxicity assay): 1.9 µM | melting point: 241 °C | Selectivity Index (SI) (SI = IC50/MIC) e (M. tuberculosis LAM 9): 0.58 | Selectivity Index (SI) (SI = IC50/MIC) a (M. bovis BCG): 5.75 | MIC (M. bovis BCG): 0.33 µM (≈ 0.0991 µg/mL) | Selectivity Index (SI) (SI = IC50/MIC) b (M. tuberculosis H37Rv): 11.88 | MIC (M. tuberculosis H37Rv): 0.16 µM (≈ 0.0481 µg/mL) | Selectivity Index (SI) (SI = IC50/MIC) c (M. tuberculosis Orphan): 0.03 | Selectivity Index (SI) (SI = IC50/MIC) d (M. tuberculosis Beijing): 5.76 | Selectivity Index (SI) (SI = IC50/MIC) h [2]: 5.76 | Selectivity Index (SI) (SI = IC50/MIC) f (M. tuberculosis Haarlem): 0.06

CC(/C=C/c1cc2ccc(Cl)cc2[nH]c1=O)=N\NC(N)=S [Compound 11d, (E)-2-((E)-4-(7-Chloro-2-oxo-1,2-dihydroquinolin-3-yl)but-3-en-2-ylidene)hydrazine-1-carbothioamide]
Selectivity Index (SI) (SI = IC50/MIC) g [1]: 0.50 | IC50 at 48 h (MTT cytotoxicity assay): 1.65 µM | melting point: 246 °C | Selectivity Index (SI) (SI = IC50/MIC) e (M. tuberculosis LAM 9): 0.53 | Selectivity Index (SI) (SI = IC50/MIC) a (M. bovis BCG): 55.00 | MIC (M. bovis BCG): 0.03 µM (≈ 0.00962 µg/mL) | Selectivity Index (SI) (SI = IC50/MIC) b (M. tuberculosis H37Rv): 11.00 | MIC (M. tuberculosis H37Rv): 0.15 µM (≈ 0.0481 µg/mL) | Selectivity Index (SI) (SI = IC50/MIC) c (M. tuberculosis Orphan): 0.26 | Selectivity Index (SI) (SI = IC50/MIC) d (M. tuberculosis Beijing): 5.00 | Selectivity Index (SI) (SI = IC50/MIC) h [2]: 0.26 | Selectivity Index (SI) (SI = IC50/MIC) f (M. tuberculosis Haarlem): 1.06

CC(/C=C/c1cc2cc(Br)ccc2[nH]c1=O)=N\NC(N)=S [Compound 11e, (E)-2-((E)-4-(6-Bromo-2-oxo-1,2-dihydroquinolin-3-yl)but-3-en-2-ylidene)hydrazine-1-carbothioamide]
Selectivity Index (SI) (SI = IC50/MIC) g [1]: 0.81 | IC50 at 48 h (MTT cytotoxicity assay): 2.2 µM | melting point: 253 °C | Selectivity Index (SI) (SI = IC50/MIC) e (M. tuberculosis LAM 9): 0.80 | Selectivity Index (SI) (SI = IC50/MIC) a (M. bovis BCG): 16.92 | MIC (M. bovis BCG): 0.13 µM (≈ 0.0475 µg/mL) | Selectivity Index (SI) (SI = IC50/MIC) b (M. tuberculosis H37Rv): 16.92 | MIC (M. tuberculosis H37Rv): 0.13 µM (≈ 0.0475 µg/mL) | Selectivity Index (SI) (SI = IC50/MIC) c (M. tuberculosis Orphan): 0.08 | Selectivity Index (SI) (SI = IC50/MIC) d (M. tuberculosis Beijing): 8.15 | potency relative to Oxafloxacin (M. tuberculosis Beijing; M. tuberculosis Beijing): tenfold more potent than Oxafloxacin | Selectivity Index (SI) (SI = IC50/MIC) h [2]: 1.61 | Selectivity Index (SI) (SI = IC50/MIC) f (M. tuberculosis Haarlem): 0.08

O=C(NCCNc1ccnc2cc(Cl)ccc12)Nc1ccc(Cl)cc1 [Compound 18]
MIC [3]: 10.65 µM (≈ 4 µg/mL) | MIC exp (log (1/molarMIC)) [3]: 4.97

O=[N+]([O-])c1ccc(N2CCN(c3ccnc4cc(Cl)ccc34)CC2)c2nonc12 [Compound 19]
MIC [3]: 7.26 µM (≈ 2.98 µg/mL) | MIC exp (log (1/molarMIC)) [3]: 5.13

O=C(NNc1ccnc2cc(Cl)ccc12)c1ccccc1N=Cc1ccc(F)cc1 [Compound 20]
MIC [3]: 6.25 µM (≈ 2.62 µg/mL) | MIC exp (log (1/molarMIC)) [3]: 5.2

O=C(NNc1ccnc2cc(Cl)ccc12)c1ccccc1N=Cc1ccc(Br)cc1 [Compound 21]
MIC [3]: 6.25 µM (≈ 3 µg/mL) | MIC exp (log (1/molarMIC)) [3]: 5.2

O=C(NNc1ccnc2cc(Cl)ccc12)c1ccccc1N=Cc1ccc(Cl)cc1Cl [Compound 22]
MIC [3]: 6.25 µM (≈ 2.94 µg/mL) | MIC exp (log (1/molarMIC)) [3]: 5.20

COc1ccc(C=Nc2ccccc2C(=O)NNc2ccnc3cc(Cl)ccc23)cc1OC [Compound 23]
MIC [3]: 6.25 µM (≈ 2.88 µg/mL) | MIC exp (log (1/molarMIC)) [3]: 5.20

COc1cc(C=Nc2ccccc2C(=O)NNc2ccnc3cc(Cl)ccc23)cc(OC)c1OC [Compound 24]
MIC [3]: 6.25 µM (≈ 3.07 µg/mL) | MIC exp (log (1/molarMIC)) [3]: 5.20

O=C(NNc1ccnc2cc(Cl)ccc12)c1ccccc1N=Cc1ccc(-c2cccs2)cc1 [Compound 25]
MIC [3]: 6.25 µM (≈ 3.02 µg/mL) | MIC exp (log (1/molarMIC)) [3]: 5.20

O=C(NNc1ccnc2cc(Cl)ccc12)c1ccccc1N=CC=Cc1ccccc1 [Compound 26]
MIC [3]: 3.12 µM (≈ 1.33 µg/mL) | MIC exp (log (1/molarMIC)) [3]: 5.51

Cc1nc2ccccc2c(-c2ccccc2)c1C(=O)c1ccccc1 [Compound 27]
MIC [3]: 19.33 µM (≈ 6.25 µg/mL) | MIC exp (log (1/molarMIC)) [3]: 4.71

CC(=O)c1c(C)nc2ccc(Cl)cc2c1-c1ccccc1 [Compound 28]
MIC [3]: 10.57 µM (≈ 3.13 µg/mL) | MIC exp (log (1/molarMIC)) [3]: 4.98

c1ccc(-c2c3c(nc4ccccc24)CCCCC3)cc1 [Compound 29]
MIC [3]: 45.73 µM (≈ 12.5 µg/mL) | MIC exp (log (1/molarMIC)) [3]: 4.34

CC1CC(=O)c2c(nc3ccccc3c2-c2ccccc2)C1 (centres unmarked) [Compound 30]
MIC [3]: 21.75 µM (≈ 6.25 µg/mL) | MIC exp (log (1/molarMIC)) [3]: 4.66

CC1(C)CC(=O)c2c(nc3ccccc3c2-c2ccccc2)C1 [Compound 31]
MIC [3]: 20.74 µM (≈ 6.25 µg/mL) | MIC exp (log (1/molarMIC)) [3]: 4.68

O=C1CC(c2ccccc2)Cc2nc3ccccc3c(-c3ccccc3)c21 (centres unmarked) [Compound 32]
MIC [3]: 35.77 µM (≈ 12.5 µg/mL) | MIC exp (log (1/molarMIC)) [3]: 4.45

c1ccc(-c2cc(-c3ccccc3)c3ccccc3n2)cc1 [Compound 33]
MIC [3]: 11.11 µM (≈ 3.13 µg/mL) | MIC exp (log (1/molarMIC)) [3]: 4.95

c1ccc(-c2cc(Cc3ccco3)nc3ccccc23)cc1 [Compound 34]
MIC [3]: 21.75 µM (≈ 6.21 µg/mL) | MIC exp (log (1/molarMIC)) [3]: 4.66

COc1ccc(NC(=O)c2c(C)nc3ccccc3c2-c2ccccc2)cc1 [Compound 35]
MIC [3]: 8.48 µM (≈ 3.12 µg/mL) | MIC exp (log (1/molarMIC)) [3]: 5.07

Cc1nc2ccccc2c(-c2ccccc2)c1C(=O)Nc1ccc(F)cc1 [Compound 36]
MIC [3]: 16.76 µM (≈ 5.97 µg/mL) | MIC exp (log (1/molarMIC)) [3]: 4.78

Cc1nc2ccccc2c(-c2ccccc2)c1C(=O)Nc1ccc(Cl)cc1 [Compound 37]
MIC [3]: 17.54 µM (≈ 6.54 µg/mL) | MIC exp (log (1/molarMIC)) [3]: 4.76

Cc1nc2ccccc2c(-c2ccccc2)c1C(=O)Nc1ccc(Br)cc1 [Compound 38]
MIC [3]: 30.92 µM (≈ 12.9 µg/mL) | MIC exp (log (1/molarMIC)) [3]: 4.51

Cc1nc2ccccc2c(-c2ccccc2)c1C(=O)Nc1ccccc1Cl [Compound 39]
MIC [3]: 33.53 µM and 18.42 µM | MIC exp (log (1/molarMIC)) [3]: 4.47 and 4.73

Cc1nc2ccccc2c(-c2ccccc2)c1C(=O)NCc1ccccc1Cl [Compound 43]
MIC [3]: 64.42 µM (≈ 24.9 µg/mL) | MIC exp (log (1/molarMIC)) [3]: 4.19

Cc1nc2ccccc2c(-c2ccccc2)c1C(=O)NCc1ccc(C(C)(C)C)cc1 [Compound 44]
MIC [3]: 33.75 µM (≈ 13.8 µg/mL) | MIC exp (log (1/molarMIC)) [3]: 4.47

NNC(=O)c1ccncc1 [Isoniazid, reference compound]
MIC (M. bovis BCG): 0.36 µM (≈ 0.0494 µg/mL) | MIC (M. tuberculosis H37Rv): 0.36 µM (≈ 0.0494 µg/mL)
